For series [1], the system named is Echinochloa oryzoides (Ard.) Fritsch. As to the kind of experiment: Preemergence weed control under flooded paddy conditions, ECHORC (Watergrass (Calif.)). On herbicidal effect rating, ECHORC: meaning of each grade not given here. It is filed as in vivo. The following applies: flooded paddy; for ECHORC: herbicidal effect rating 0-9, three to four weeks after treatment; for herbicidal effect rating, ECHORC: rated three to four weeks after treatment.

For series [2], the system named is Cyperus iria. In words: Preemergence weed control under flooded paddy conditions, CYPIR (Rice Flatsedge). On herbicidal effect rating, CYPIR: meaning of each grade not given here. As to conditions: flooded paddy; for CYPIR: herbicidal effect rating 0-9, three to four weeks after treatment; for herbicidal effect rating, CYPIR: rated three to four weeks after treatment. The series is classed as in vivo.
Series [3] relates to Cyperus serotinus, Rottb. As to the kind of experiment: Preemergence weed control under flooded paddy conditions, CYPSE (Flatsedge). On herbicidal effect rating, CYPSE: meaning of each grade not given here. The series is classed as in vivo. The following applies: for CYPSE: herbicidal effect rating 0-9, three to four weeks after treatment; for herbicidal effect rating, CYPSE: rated three to four weeks after treatment.
Series [4] concerns Monochoria vaginalis, Presl. As to the kind of experiment: Preemergence weed control under flooded paddy conditions, MOOVA (Monochoria). On herbicidal effect rating, MOOVA: meaning of each grade not given here. The series is classed as in vivo. The following applies: flooded paddy; for MOOVA: herbicidal effect rating 0-9, three to four weeks after treatment; for herbicidal effect rating, MOOVA: rated three to four weeks after treatment.
Series [5] deals with Sagittaria pygmaea, L. As to the kind of experiment: Preemergence weed control under flooded paddy conditions, SAGPY (Arrowhead (Pygmaea)). On herbicidal effect rating, SAGPY: meaning of each grade not given here. It is filed as in vivo. As to conditions: flooded paddy; for SAGPY: herbicidal effect rating 0-9, three to four weeks after treatment; for herbicidal effect rating, SAGPY: rated three to four weeks after treatment.
In series [6] the test system is Oryza sativa, (L.) Tebonnet. In words: Rice tolerance to post-transplant applications under flooded paddy conditions (Example 187), ORYSAT (Rice, Tebonnet). As to conditions: for ORYSAT: herbicidal effect rating 0-9, three to four weeks after treatment; for herbicidal effect rating ORYSAT / herbicidal effect rating, ORYSAT (rice tolerance): rated three to four weeks after treatment.

The mark [7] stands for this setting: 0.0320 kg/ha, preemergence weeds.
Setting [8] is: 0.0620 kg/ha, preemergence weeds.
Setting [9] is: 0.1250 kg/ha, preemergence weeds.
Where [10] appears, read: 0.2500 kg/ha, preemergence weeds.
Where [11] appears, read: Rate 0.0320 kg/ha, preemergence weeds.
Where [12] appears, read: Rate 0.0620 kg/ha, preemergence weeds.
Setting [13] is: Rate 0.1250 kg/ha, preemergence weeds.
Where [14] appears, read: Rate 0.2500 kg/ha, preemergence weeds.

For the compound `Cc1ccc(OCC(=O)N(C)S(C)(=O)=O)c(-c2nsc3ccc(-n4c(=O)cc(C(F)(F)F)n(C)c4=O)cc23)c1` [Example 437, Acetamide, 2-{{2-{5-[3,6-dihydro-3-methyl-2,6-dioxo-4-(trifluoromethyl)-1(2H)-pyrimidinyl]-1,2-benzisothiazol-3-yl}-p-tolyl}oxy}-N-methyl-N-(methylsulfonyl)-], the ECHORC is on record as 5.0 in series [1] (setting [7]), 7.0 in series [1] (setting [8]), 7.0 in series [1] (setting [9]) and 8.0 in series [1] (setting [10]). In addition, the CYPIR in series [2] (setting [7]) turned out to be 0.0; in series [2] (setting [8]), 0.0; in series [2] (setting [9]), 4.0; in series [2] (setting [10]) it was 6.0. The CYPSE in series [3] (setting [7]) is given as 0.0; in series [3] (setting [8]), 2.0; in series [3] (setting [9]) it was 3.0; in series [3] (setting [10]) it was 7.0. Moreover, the MOOVA in series [4] (setting [7]), in series [4] (setting [8]), in series [4] (setting [9]) and in series [4] (setting [10]) was 9.0 each time. In addition, the SAGPY is on record as 0.0 in series [5] (setting [7]), 3.0 in series [5] (setting [8]), 4.0 in series [5] (setting [9]) and 7.0 in series [5] (setting [10]). The ORYSAT worked out at 4.0 in series [6] (0.0320 kg/ha), 5.0 in series [6] (0.0620 kg/ha), 6.0 in series [6] (0.1250 kg/ha) and 7.0 in series [6] (0.2500 kg/ha).
For `Cn1c(C(F)(F)F)cc(=O)n(-c2ccc3snc(CN(C(=O)OC(C)(C)C)S(C)(=O)=O)c3c2)c1=O` [Example 304, Carbamic acid, {{5-[3,6-dihydro-3-methyl-2,6-dioxo-4-(trifluoromethyl)-1(2H)-pyrimidinyl]-1,2-benzisothiazol-3-yl}methyl}(methylsulfonyl)-, tert-butyl ester], the “herbicidal effect rating, ECHORC” value in series [1] (setting [11]), in series [1] (setting [12]), in series [1] (setting [13]) and in series [1] (setting [14]) was 0.0 in each case. Further, the “herbicidal effect rating, CYPIR” value is reported as 0.0 in series [2] (setting [11]), 4.0 in series [2] (setting [12]), 9.0 in series [2] (setting [13]) and 9.0 in series [2] (setting [14]). In addition, the “herbicidal effect rating, CYPSE” value in series [3] (setting [11]), in series [3] (setting [12]), in series [3] (setting [13]) and in series [3] (setting [14]) was 0.0 each time. The “herbicidal effect rating, MOOVA” value in series [4] (setting [11]) worked out at 0.0; in series [4] (setting [12]), 7.0; in series [4] (setting [13]), 7.0; in series [4] (setting [14]), 9.0. The “herbicidal effect rating, SAGPY” value in series [5] (setting [11]), in series [5] (setting [12]), in series [5] (setting [13]) and in series [5] (setting [14]) was 0.0 each time. Besides, the “herbicidal effect rating ORYSAT” value in series [6] (Rate 0.0320 kg/ha) is on record as 0.0; in series [6] (Rate 0.0620 kg/ha) it was 2.0; in series [6] (Rate 0.1250 kg/ha), 4.0; in series [6] (Rate 0.2500 kg/ha), 4.0.
With `Cn1c(C(F)(F)F)cc(=O)n(-c2ccc3snc(C(=O)NS(=O)(=O)Cc4ccc(OC(F)(F)F)cc4)c3c2)c1=O` [Example 406, 1,2-Benzisothiazole-3-carboxamide, 5-[3,6-dihydro-3-methyl-2,6-dioxo-4-(trifluoromethyl)-1(2H)-pyrimidinyl]-N-{[p-(trifluoromethoxy)-benzyl]sulfonyl}-], the ECHORC in series [1] (setting [7]) came out at 6.0; in series [1] (setting [8]), 6.0; in series [1] (setting [9]) it was 7.0; in series [1] (setting [10]), 7.0. The CYPIR in series [2] (setting [7]) is 0.0; in series [2] (setting [8]), 4.0; in series [2] (setting [9]) it was 4.0; in series [2] (setting [10]), 7.0. Besides, the CYPSE in series [3] (setting [7]) was found to be 0.0; in series [3] (setting [8]), 0.0; in series [3] (setting [9]) it was 3.0; in series [3] (setting [10]), 6.0. In addition, the MOOVA in series [4] (setting [7]) is recorded as 4.0; in series [4] (setting [8]), 7.0; in series [4] (setting [9]) it was 9.0; in series [4] (setting [10]) it was 9.0. The SAGPY in series [5] (setting [7]) came to 3.0; in series [5] (setting [8]), 4.0; in series [5] (setting [9]), 4.0; in series [5] (setting [10]) it was 4.0. The ORYSAT in series [6] (0.0320 kg/ha) worked out at 0.0; in series [6] (0.0620 kg/ha) it was 0.0; in series [6] (0.1250 kg/ha), 2.0; in series [6] (0.2500 kg/ha), 4.0.
For `COC(=O)COc1c(C)cc(C)cc1-c1nsc2ccc(-n3c(=O)cc(C(F)(F)F)n(C)c3=O)cc12` [Example 26, Methyl {{6-{5-[3,6-dihydro-3-methyl-2,6-dioxo-4-(trifluoromethyl)-1(2H)-pyrimidinyl]-1,2-benzisothiazol-3-yl}-2,4-xylyl}oxy}acetate], the “herbicidal effect rating, ECHORC” value amounted to 7.0 in series [1] (0.0313 kg/ha, preemergence); 9.0 in series [1] (0.0625 kg/ha, preemergence); 9.0 in series [1] (0.1250 kg/ha, preemergence); 9.0 in series [1] (0.2500 kg/ha, preemergence). Further, the “herbicidal effect rating, CYPIR” value in series [2] (0.0313 kg/ha, preemergence) came to 6.0; in series [2] (0.0625 kg/ha, preemergence), 8.0; in series [2] (0.1250 kg/ha, preemergence), 9.0; in series [2] (0.2500 kg/ha, preemergence), 9.0. For the same compound, the “herbicidal effect rating, CYPSE” value in series [3] (0.0313 kg/ha, preemergence) turned out to be 0.0; in series [3] (0.0625 kg/ha, preemergence), 4.0; in series [3] (0.1250 kg/ha, preemergence) it was 2.0; in series [3] (0.2500 kg/ha, preemergence), 9.0. The “herbicidal effect rating, MOOVA” value in series [4] (0.0313 kg/ha, preemergence) is reported as 9.0; in series [4] (0.0625 kg/ha, preemergence) it was 9.0; in series [4] (0.1250 kg/ha, preemergence) it was 9.0; in series [4] (0.2500 kg/ha, preemergence), 9.0. Besides, the “herbicidal effect rating, SAGPY” value in series [5] (0.0313 kg/ha, preemergence) is reported as 0.0; in series [5] (0.0625 kg/ha, preemergence) it was 0.0; in series [5] (0.1250 kg/ha, preemergence), 2.0; in series [5] (0.2500 kg/ha, preemergence), 9.0. Besides, the “herbicidal effect rating, ORYSAT (rice tolerance)” value in series [6] (0.0313 kg/ha) stood at 3.0; in series [6] (0.0625 kg/ha), 4.0; in series [6] (0.1250 kg/ha), 6.0; in series [6] (0.2500 kg/ha) it was 9.0.
Regarding `COC(=O)CN(C(=O)c1nsc2ccc(-n3c(=O)cc(C(F)(F)F)n(C)c3=O)cc12)S(=O)(=O)Cc1ccccc1` [Example 441, Glycine, N-(benzylsulfonyl)-N-{{5-[3,6-dihydro-3-methyl-2,6-dioxo-4-(trifluoromethyl)-1(2H)-pyrimidinyl]-1,2-benzisothiazol-3-yl}carbonyl}-, methyl ester], the ECHORC in series [1] (setting [7]) came out at 0.0; in series [1] (setting [8]), 0.0; in series [1] (setting [9]), 0.0; in series [1] (setting [10]), 3.0. The CYPIR is reported as 4.0 in series [2] (setting [7]), 6.0 in series [2] (setting [8]), 9.0 in series [2] (setting [9]) and 9.0 in series [2] (setting [10]). Further, the CYPSE is reported as 0.0 in series [3] (setting [8]), 4.0 in series [3] (setting [9]) and 7.0 in series [3] (setting [10]). Further, the MOOVA in series [4] (setting [7]), in series [4] (setting [8]), in series [4] (setting [9]) and in series [4] (setting [10]) was 9.0 in each case. Also, the SAGPY in series [5] (setting [7]) was 0.0; in series [5] (setting [8]) it was 2.0; in series [5] (setting [9]) it was 3.0; in series [5] (setting [10]), 6.0. Further, the ORYSAT is reported as 0.0 in series [6] (0.0320 kg/ha), 0.0 in series [6] (0.0620 kg/ha), 2.0 in series [6] (0.1250 kg/ha) and 3.0 in series [6] (0.2500 kg/ha).

The values are drawn from patent EP0908457B1, “3-(1,2-benzisothiazol- and isoxazol-5-Y1)-2,4(1H,3H)-pyrimidinedione or thione and 3-(1,2-benzisothiazol- and isoxazol-5-y1)-4(3H)-pyrimidinone or thione herbicidal agents” (BASF AKTIENGESELLSCHAFT, priority 1997, dated 1999).
